The record followed here is patent publication US20180217131A1, “Novel Cell Based Assay” (Medical Diagnostic Laboratories, LLC, priority 2017, published 2018).

Changes are numbered by the printed parent chain.

Assay type in all cases: cell-based
The target of assay [1] is T1, aromatase (wild-type CYP19A1) (Homo sapiens, UniProt P11511).
T1 construct: expressed in transfected cells; host or cells: HEK 293-derived 3xERE-luc clone #4 (co-transfected with ESR1) or clone #1 (stably expressing wild-type ESR1)
T1 sequence (P11511 1-503): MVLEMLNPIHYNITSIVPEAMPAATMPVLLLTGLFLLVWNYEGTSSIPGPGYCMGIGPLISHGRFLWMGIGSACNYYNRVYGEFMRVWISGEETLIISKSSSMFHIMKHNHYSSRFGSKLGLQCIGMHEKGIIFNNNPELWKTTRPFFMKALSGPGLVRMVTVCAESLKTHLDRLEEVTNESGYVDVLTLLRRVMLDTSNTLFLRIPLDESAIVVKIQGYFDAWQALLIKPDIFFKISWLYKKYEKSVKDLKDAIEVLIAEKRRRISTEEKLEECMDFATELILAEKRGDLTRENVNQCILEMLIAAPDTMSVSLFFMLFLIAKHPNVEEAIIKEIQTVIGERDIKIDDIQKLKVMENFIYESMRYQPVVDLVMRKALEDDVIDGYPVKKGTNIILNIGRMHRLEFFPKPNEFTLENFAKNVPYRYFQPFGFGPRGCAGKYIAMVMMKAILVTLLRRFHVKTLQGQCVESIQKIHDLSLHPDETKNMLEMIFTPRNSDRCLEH
As to the kind of experiment: Aromatase reporter assay, 3×ERE-luc clone #4 cells transfected with expression constructs of estrogen receptor and aromatase. The note with it: 24 hours; for testosterone-induced luciferase reporter activity in the presence of aromatase inhibitor: clone #4, testosterone with or without inhibitor. As to the method: A serial dilution of testosterone was added to the cells for 24 hours. The luciferase reporter activity was measured.
The transfected cells were treated with testosterone in the presence or absence of aromatase inhibitors, anastrozole and letrozole, for 24 hours (FIG. 31).
In general terms: A reporter such as luciferase makes a cellular process visible.

Assay [2] has as its target T1, aromatase (wild-type CYP19A1). The assay is described as follows: Aromatase reporter assay, clone #1 cells (stable 3×ERE-Luc and wild-type ESR1) transfected with linear expression cassette of wild-type CYP19A1. On the procedure:
The luciferase reporter activity was measured 24 hours post-transfection.

The target of assay [3] is T2, R192H mutant of aromatase (CYP19A1) (Homo sapiens, UniProt P11511, R192H).
T2 construct: expressed in transfected cells; host or cells: HEK 293-derived reporter cells (clone #4 with ESR1 co-transfected; clone #1 stably expressing ESR1)
T2 sequence (P11511 1-503 R192H): T1 sequence (P11511 1-503) with R192H
As to the kind of experiment: Aromatase reporter assay with R192H mutant of CYP19A1. On the procedure:
(§1) The transfected cells were treated with a serial dilution of testosterone. The luciferase reporter activity was measured 24 hours post-transfection.
R192H corresponds to a missense mutation of CYP19A1, which changed arginine (R) into histidine (H) at amino acid position of 192. In order to functionally characterize this mutation, PCR-mediated overlapping extension was employed to construct linear expression cassette of aromatase carrying this mutation. We first transfected the linear expression cassette of either wild-type aromatase or mutant aromatase DNA into the reporter cells followed by treatment with testosterone and its inhibitors using “all-in-one” method. The luciferase reporter activity was measured 24 hours post-transfection.
We used the formula as illustrated in the above-mentioned example to calculate the activity of aromatase.

The target of assay [4] is T3, R435C mutant of aromatase (CYP19A1) (Homo sapiens, UniProt P11511, R435C).
T3 construct: expressed in transfected cells; host or cells: HEK 293-derived reporter cells (clone #4 with ESR1 co-transfected; clone #1 stably expressing ESR1)
T3 sequence (P11511 1-503 R435C): T1 sequence (P11511 1-503) with R435C
The assay is described as follows: Aromatase reporter assay with R435C mutant of CYP19A1. On the procedure:
as §1
R435C corresponds to a missense mutation of CYP19A1, which changed arginine (R) into cysteine (C) at amino acid position of 435. In order to functionally characterize this mutation, PCR-mediated overlapping extension was employed to construct linear expression cassette of aromatase carrying this mutation. We first transfected the linear expression cassette of either wild-type aromatase or mutant aromatase DNA into the reporter cells followed by treatment with testosterone and its inhibitors using “all-in-one” method. The luciferase reporter activity was measured 24 hours post-transfection.

For `CC(C)(C#N)c1cc(Cn2cncn2)cc(C(C)(C)C#N)c1` [anastrozole], the “testosterone-induced luciferase reporter activity in the presence of aromatase inhibitor” value in assay [1] is “reduced”.

Take `N#Cc1ccc(C(c2ccc(C#N)cc2)n2cncn2)cc1` [letrozole]: in assay [1], the “testosterone-induced luciferase reporter activity in the presence of aromatase inhibitor” value is on record as “reduced”.

Take `C[C@]12CC[C@H]3[C@@H](CCC4=CC(=O)CC[C@@]43C)[C@@H]1CC[C@@H]2O` [testosterone]: the “luciferase activity upon treatment of testosterone” value is listed as “dose dependent activation of luciferase activity was observed” in assay [1] (clone #4, estrogen receptor and aromatase constructs, serial dilution of testosterone); “no increase in luciferase activity was observed” in assay [4] (clone #1, linear expression cassette of R435C, all-in-one method). In assay [2] (clone #1, 25 ng or 50 ng aromatase linear DNA, testosterone for 6 hours), the “luciferase reporter activity upon addition of testosterone” value is recorded as “responded to testosterone in a dose-dependent manner”. The “reporter signal at 1 pM of testosterone” value in assay [2] (clone #1, 50 ng linear cassette, testosterone for 24 hours, 1 pM) is given as “robust reporter signal was detected”. For the same compound, in assay [3] (clone #1, linear expression cassette of R192H, all-in-one method), the “luciferase activity upon treatment of testosterone, compared to wild type” value is “reduced luciferase activity was observed”. Also, the “luciferase reporter activity upon testosterone, compared to wild type” value in assay [3] (clone #4, expression constructs of estrogen receptor and R192H aromatase, serial dilution of testosterone) is “reduced luciferase reporter activity”. For the same compound, the “induction of luciferase reporter activity upon testosterone exposure” value in assay [4] (clone #4, expression constructs of estrogen receptor and R435C aromatase) was “no induction of luciferase reporter activity”.
